Data from ChEMBL document CHEMBL3603836, “Hybrid pyrimidine alkynyls inhibit the clinically resistance related Bcr-Abl(T315I) mutant” (Bioorg Med Chem Lett, 2015).
Activity calls are given as the source filed them. The calls are words filed in the database; no cut-off is given here.

Columns and labels:
BaF3 [1] = assay: Antitumor activity against mouse BA/F3 cells expressing Bcr-Abl T315I mutant allografted in po dosed mouse assessed as tumor growth inhibition administered qd for 16 days; format: functional, organism-based
[2] = test system: Tyrosine-protein kinase ABL1 (Mus musculus), P00520 [T315I]; assay: Inhibition of Bcr-Abl T315I mutant in mouse BA/F3 cells assessed as total protein level of CRKL at 4 to 500 nM after 4 hrs by Western blot analysis; format: cell-based; settings: BaF3
Tyrosine-protein kinase ABL1 (Mus musculus), P00520 [T315I], sequence (P00520 whole entry T315I, the tested form may be a part): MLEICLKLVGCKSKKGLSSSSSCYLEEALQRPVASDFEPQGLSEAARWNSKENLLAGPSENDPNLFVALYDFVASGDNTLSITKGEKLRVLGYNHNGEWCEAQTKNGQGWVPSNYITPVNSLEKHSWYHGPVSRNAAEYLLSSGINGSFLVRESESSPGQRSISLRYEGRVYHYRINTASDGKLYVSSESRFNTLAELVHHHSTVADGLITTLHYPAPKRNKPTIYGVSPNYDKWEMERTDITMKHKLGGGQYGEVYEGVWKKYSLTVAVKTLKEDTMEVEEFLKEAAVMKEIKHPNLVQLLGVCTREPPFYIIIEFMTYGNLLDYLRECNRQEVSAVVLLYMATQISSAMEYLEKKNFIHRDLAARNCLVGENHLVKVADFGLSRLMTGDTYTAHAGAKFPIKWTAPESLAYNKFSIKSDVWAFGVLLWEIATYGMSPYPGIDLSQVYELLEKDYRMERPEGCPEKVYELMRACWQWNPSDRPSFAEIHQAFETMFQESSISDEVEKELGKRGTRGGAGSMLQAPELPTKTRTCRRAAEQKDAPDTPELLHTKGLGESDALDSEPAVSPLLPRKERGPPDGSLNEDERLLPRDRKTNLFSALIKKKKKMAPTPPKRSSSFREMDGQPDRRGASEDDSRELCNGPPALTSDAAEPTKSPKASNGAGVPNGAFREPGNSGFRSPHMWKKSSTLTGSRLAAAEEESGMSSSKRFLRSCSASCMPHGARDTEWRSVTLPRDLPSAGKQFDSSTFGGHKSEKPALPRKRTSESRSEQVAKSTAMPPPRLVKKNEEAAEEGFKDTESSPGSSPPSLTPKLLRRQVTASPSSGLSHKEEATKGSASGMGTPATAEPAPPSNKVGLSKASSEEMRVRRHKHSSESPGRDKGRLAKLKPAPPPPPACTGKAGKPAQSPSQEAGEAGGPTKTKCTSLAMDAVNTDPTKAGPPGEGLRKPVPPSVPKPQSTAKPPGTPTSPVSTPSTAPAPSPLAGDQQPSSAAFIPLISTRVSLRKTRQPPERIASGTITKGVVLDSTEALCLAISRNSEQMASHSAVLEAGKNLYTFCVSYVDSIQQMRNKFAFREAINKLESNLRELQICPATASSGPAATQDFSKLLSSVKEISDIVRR

K562 [3] = assay: Induction of apoptosis in human K562 cells expressing wild type Bcr-Abl assessed as early apoptotic cells at 4 nM after 24 hrs using annexin-V/7-AAD staining by FACS analysis (reference value: 7.3%); format: functional
BaF3 [4] = assay: Antitumor activity against mouse BA/F3 cells expressing Bcr-Abl T315I mutant allografted in mouse assessed as tumor growth inhibition at 10 mg/kg, qd for 16 days; format: functional, organism-based
BaF3 [5] = assay: Induction of apoptosis in mouse BA/F3 cells expressing Bcr-Abl T315I mutant assessed as early apoptotic cells at 4 nM after 24 hrs using annexin-V/7-AAD staining by FACS analysis (reference value: 4.6%); format: functional
[6] = Antiproliferative activity against mouse BA/F3 cells expressing wild type Bcr-Abl after 72 hrs by CCK-8 assay; format: functional, cell-based; settings: BaF3, 72 h
K562 [7] = assay: Induction of apoptosis in human K562 cells expressing wild type Bcr-Abl assessed as late apoptotic cells at 20 nM after 24 hrs using annexin-V/7-AAD staining by FACS analysis (reference value: 2.1%); format: functional
K562 [8] = assay: Cell cycle arrest in human K562 cells expressing wild type Bcr-Abl assessed as accumulation at G0/G1 phase at 4 nM after 24 hrs using propidium iodide staining by flow cytometry (reference value: 64.03%); format: functional
K562 [9] = assay: Induction of apoptosis in human K562 cells expressing wild type Bcr-Abl assessed as late apoptotic cells at 100 nM after 24 hrs using annexin-V/7-AAD staining by FACS analysis (reference value: 2.1%); format: functional
K562 [10] = assay: Cell cycle arrest in human K562 cells expressing wild type Bcr-Abl assessed as accumulation at G0/G1 phase after 24 hrs using propidium iodide staining by flow cytometry; format: functional, cell-based
[11] = test system: Tyrosine-protein kinase ABL1 (Mus musculus), P00520 [T315I]; assay: Inhibition of Bcr-Abl T315I mutant in mouse BA/F3 cells assessed as total protein level of STAT5 at 4 to 500 nM after 4 hrs by Western blot analysis; format: cell-based; settings: BaF3
BaF3 [12] = assay: Induction of apoptosis in mouse BA/F3 cells expressing Bcr-Abl T315I mutant assessed as early apoptotic cells after 24 hrs using annexin-V/7-AAD staining by FACS analysis; format: functional, cell-based
Bcr/Abl fusion protein [13] = biological target: Bcr/Abl fusion protein (Homo sapiens, UniProt P00519); format: protein assay
Description: Inhibition of wild type Bcr-Abl (unknown origin) using Tyr2 peptide substrate after 2 hrs by FRET-based Z'-lyte assay

[14] = Cell cycle arrest in mouse BA/F3 cells expressing Bcr-Abl T315I mutant assessed as accumulation at G0/G1 phase at 20 nM after 24 hrs using propidium iodide staining by flow cytometry (reference value: 51.92%); format: functional, cell-based; settings: BaF3
K562 [15] = assay: Induction of apoptosis in human K562 cells expressing wild type Bcr-Abl assessed as early apoptotic cells at 0.8 nM after 24 hrs using annexin-V/7-AAD staining by FACS analysis (reference value: 7.3%); format: functional
BaF3 [16] = assay: Antitumor activity against mouse BA/F3 cells expressing Bcr-Abl T315I mutant allografted in mouse assessed as tumor regression at 30 mg/kg, qd for 16 days; format: functional, organism-based
Rattus norvegicus = assay: AUC (0 to infinity) in Sprague-Dawley rat at 10 mg/kg, iv; format: ADME, organism-based; set-up: dose 10 mg/kg, time infinity, route intravenous; settings: in vivo
[17] = Cell cycle arrest in mouse BA/F3 cells expressing Bcr-Abl T315I mutant assessed as accumulation at G0/G1 phase at 4 nM after 24 hrs using propidium iodide staining by flow cytometry (reference value: 51.92%); format: functional, cell-based; settings: BaF3
[18] = test system: Tyrosine-protein kinase ABL1 (Mus musculus), P00520 [T315I]; assay: Inhibition of Bcr-Abl T315I mutant in mouse BA/F3 cells assessed as total protein level of Bcr-Abl at 4 to 500 nM after 4 hrs by Western blot analysis; format: cell-based; settings: BaF3
Bcr/Abl fusion protein [19] = biological target: Bcr/Abl fusion protein (Homo sapiens, UniProt P00519, T315I); format: protein assay
K562 [20] = assay: Antitumor activity against human K562 cells expressing wild type Bcr-Abl xenografted in mouse assessed as sign of tumor recurrence at 10 mg/kg, po qd for 16 days measured after 7 days of last dose; format: functional, organism-based
K562 [21] = assay: Induction of apoptosis in human K562 cells expressing wild type Bcr-Abl assessed as late apoptotic cells at 4 nM after 24 hrs using annexin-V/7-AAD staining by FACS analysis (reference value: 2.1%); format: functional
[22] = test system: Tyrosine-protein kinase ABL1 (Mus musculus), P00520 [T315I]; assay: Inhibition of Bcr-Abl T315I mutant in mouse BA/F3 cells assessed as reduction of CRKL phosphorylation at 4 to 500 nM after 4 hrs by Western blot analysis; format: cell-based; settings: BaF3
K562 [23] = assay: Induction of apoptosis in human K562 cells expressing wild type Bcr-Abl assessed as late apoptotic cells at 0.8 nM after 24 hrs using annexin-V/7-AAD staining by FACS analysis (reference value: 2.1%); format: functional
K562 [24] = assay: cells; settings: Homo sapiens, K562, 72 h
Description: Antiproliferative activity against human K562 cells expressing wild type Bcr-Abl after 72 hrs by CCK-8 assay

BaF3 [25] = assay: Induction of apoptosis in mouse BA/F3 cells expressing Bcr-Abl T315I mutant assessed as early apoptotic cells at 100 nM after 24 hrs using annexin-V/7-AAD staining by FACS analysis (reference value: 4.6%); format: functional
K562 [26] = assay: Antitumor activity against human K562 cells expressing wild type Bcr-Abl xenografted in po dosed mouse assessed as tumor growth inhibition administered qd for 16 days; format: functional, organism-based
Mus musculus [27] = assay: Toxicity in human K562 cells expressing wild type Bcr-Abl xenografted mouse assessed as change in body weight at 3.3 to 10 mg/kg, po qd for 16 days relative to control; format: organism-based; settings: in vivo, 384 h
[28] = Cell cycle arrest in mouse BA/F3 cells expressing Bcr-Abl T315I mutant assessed as accumulation at G0/G1 phase at 100 nM after 24 hrs using propidium iodide staining by flow cytometry (reference value: 51.92%); format: functional, cell-based; settings: BaF3
K562 [29] = assay: Cell cycle arrest in human K562 cells expressing wild type Bcr-Abl assessed as accumulation at G0/G1 phase at 100 nM after 24 hrs using propidium iodide staining by flow cytometry (reference value: 64.03%); format: functional
[30] = Cell cycle arrest in mouse BA/F3 cells expressing Bcr-Abl T315I mutant assessed as accumulation at G0/G1 phase after 24 hrs using propidium iodide staining by flow cytometry; format: functional, cell-based; settings: BaF3
K562 [31] = assay: Induction of apoptosis in human K562 cells expressing wild type Bcr-Abl assessed as early apoptotic cells after 24 hrs using annexin-V/7-AAD staining by FACS analysis; format: functional, cell-based
[32] = test system: Tyrosine-protein kinase ABL1 (Mus musculus), P00520 [T315I]; assay: Inhibition of Bcr-Abl T315I mutant in mouse BA/F3 cells assessed as reduction of STAT5 phosphorylation at 4 to 500 nM after 4 hrs by Western blot analysis; format: cell-based; settings: BaF3
Mus musculus [33] = assay: Toxicity in human K562 cells expressing wild type Bcr-Abl xenografted mouse assessed as mortality at 3.3 to 10 mg/kg, po qd for 16 days; format: organism-based; settings: in vivo, 384 h

Cc1cn(-c2cc(NC(=O)c3ccc(C)c(C#Cc4cnc(NC5CC5)nc4)c3)cc(C(F)(F)F)c2)cn1
growth inhibition (GI) (BaF3 [1]): Dose-dependent effect | inhibition [2]: inactive | Activity (K562 [3]): 6.7% | Activity (BaF3 [4]): inactive | Activity (BaF3 [5]): 5.8% | IC50 [6]: 2 nM | Activity (K562 [7]): 2.5% | Activity (K562 [8]): 85.99% | Activity (K562 [9]): 9% | Activity (K562 [10]): Dose-dependent effect | inhibition [11]: inactive | Activity (BaF3 [12]): Dose-dependent effect | IC50 (Bcr/Abl fusion protein [13]): 5 nM | Activity [14]: 58.9% | Activity (K562 [15]): 7.1% | Activity (BaF3 [16]): Active | AUC (Rattus norvegicus): 285187 µg/L/h | Activity [17]: 52.4% | inhibition [18]: inactive | IC50 (Bcr/Abl fusion protein [19]): 9 nM | Activity (K562 [20]): inactive | Activity (K562 [21]): 2% | inhibition [22]: Active | Activity (K562 [23]): 1.7% | IC50 (K562 [24]): 2 nM | Activity (BaF3 [25]): 7.1% | growth inhibition (GI) (K562 [26]): Dose-dependent effect | Activity (Mus musculus [27]): < 5% | Activity [28]: 67.2% | Activity (K562 [29]): 91.44% | Activity [30]: Dose-dependent effect | Activity (K562 [31]): Dose-dependent effect | inhibition [32]: Active | Activity (Mus musculus [33]): Non-toxic
